Data set [1] has as its target T1, T. brucei guanosine 5'-monophosphate reductase (TbGMPR) (Trypanosoma brucei, UniProt Q57ZS7).
T1 construct: gene Tb05.1P6.110; recombinant TbGMPR coding region, GST fusion in E. coli, tag cleaved with PreScission protease
Put plainly: NADPH consumption at […] nm, Lineweaver-Burk, competitive inhibition fit (IC50 […]). It is filed as biochemical.

For data set [2], the target named is T1, T. brucei guanosine 5'-monophosphate reductase (TbGMPR). Put plainly: NADPH consumption at […] nm, Hill fit. It is filed as biochemical.
In data set [3] the target is T2, HsGMPR2 (human GMPR type 2) (Homo sapiens, UniProt Q9P2T1).
T2 construct: gene GMPR2; recombinant
T2 sequence (Q9P2T1 1-348): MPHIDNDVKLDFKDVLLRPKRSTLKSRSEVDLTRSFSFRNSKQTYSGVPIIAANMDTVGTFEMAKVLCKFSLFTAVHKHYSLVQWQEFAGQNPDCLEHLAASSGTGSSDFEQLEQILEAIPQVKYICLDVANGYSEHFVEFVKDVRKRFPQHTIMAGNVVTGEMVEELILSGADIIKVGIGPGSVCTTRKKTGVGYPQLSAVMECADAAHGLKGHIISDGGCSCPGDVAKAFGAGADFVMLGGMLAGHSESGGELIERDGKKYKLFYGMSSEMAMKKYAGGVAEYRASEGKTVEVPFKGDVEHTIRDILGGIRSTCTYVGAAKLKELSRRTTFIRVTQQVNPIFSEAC
The experiment in a line: NADPH consumption at […] nm, Hill fit. It is filed as biochemical.

The target in data set [4] is T3, HsGMPR1 (human GMPR type 1) (Homo sapiens, UniProt P36959).
T3 construct: recombinant
T3 sequence (P36959 1-345): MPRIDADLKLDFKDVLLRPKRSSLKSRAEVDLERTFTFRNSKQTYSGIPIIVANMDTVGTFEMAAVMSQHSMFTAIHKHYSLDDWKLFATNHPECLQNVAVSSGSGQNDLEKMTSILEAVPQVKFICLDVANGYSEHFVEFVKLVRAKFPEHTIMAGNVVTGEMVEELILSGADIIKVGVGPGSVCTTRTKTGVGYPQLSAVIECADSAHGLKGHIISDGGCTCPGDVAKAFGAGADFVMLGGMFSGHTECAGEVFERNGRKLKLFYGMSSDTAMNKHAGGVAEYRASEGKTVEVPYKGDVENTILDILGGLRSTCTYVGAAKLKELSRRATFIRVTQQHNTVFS
The experiment in a line: NADPH consumption at […] nm, Hill fit. It is filed as biochemical.

Substrate in data set [5]: NC(=O)C1=CN([C@@H]2O[C@H](COP(=O)(O)OP(=O)(O)OC[C@H]3O[C@@H](n4cnc5c(N)ncnc54)[C@H](OP(=O)(O)O)[C@@H]3O)[C@@H](O)[C@H]2O)C=CC1
The experiment in a line: purified protein. As to conditions: varied: cofactor.

Substrate in data set [6]: Nc1nc2c(ncn2[C@@H]2O[C@H](COP(=O)(O)O)[C@@H](O)[C@H]2O)c(=O)[nH]1
The experiment in a line: purified protein. In kind it is biochemical, Homo sapiens. Conditions: NADPH.

Substrate in data set [7]: NC(=O)C1=CN([C@@H]2O[C@H](COP(=O)(O)OP(=O)(O)OC[C@H]3O[C@@H](n4cnc5c(N)ncnc54)[C@H](OP(=O)(O)O)[C@@H]3O)[C@@H](O)[C@H]2O)C=CC1
The experiment in a line: purified protein. It is filed as biochemical, Trypanosoma brucei. As to conditions: varied: cofactor.

Substrate in data set [8]: Nc1nc2c(ncn2[C@@H]2O[C@H](COP(=O)(O)O)[C@@H](O)[C@H]2O)c(=O)[nH]1
Put plainly: purified protein. In kind it is biochemical, Trypanosoma brucei. As to conditions: NADPH.

This note sets out measurements from PMC4701174, “Novel Characteristics of Trypanosoma brucei Guanosine 5'-monophosphate Reductase Distinct from Host Animals” (PLoS Neglected Tropical Diseases, 2016).

Turning to `NC(=O)c1ncn([C@@H]2O[C@H](COP(=O)(O)O)[C@@H](O)[C@H]2O)n1` [RMP, ribavirin 5'-monophosphate], the inhibition constant Ki in data set [1] worked out at 4.46 ± 0.46 µM.

As for `NC(=O)c1ncn([C@@H]2O[C@H](COP(=O)(O)O)[C@@H](O)[C@H]2O)c1O` [MZP, mizoribine 5’-monophosphate], the IC50 in data set [2] amounted to 23.7 ± 1.9 µM; in data set [3] it was 69.3 ± 7.8 µM; in data set [4], 120 ± 16.1 µM.

B1: HsGMPR1 (human GMPR type 1) (Homo sapiens) (protein)
chain: T3 sequence (P36959 1-345)
notes: recombinant
Turning to B1, the Km in the data set “purified protein [5]” was 34.8 ± 4.3 µM; in “purified protein [6]” it was 22.1 ± 2.2 µM.

B2: T. brucei guanosine 5'-monophosphate reductase (TbGMPR) (Trypanosoma brucei brucei TREU927) (protein)
chain: MSFNESASIPTGLTYDDVLIIPQHSRVTSRKEVNTTTRLSRNVKLSIPIVASNMDTVCEQRMAVAMAREGGIGILHRFCSIEEQCAMLREVKRAQSFLIESPRIILPHETAREAWEGLNWKGRVGGVGCLLVVNCKNERKLLGIITRHDLKLADESTTVESLMTPVDKMVVSTNTSISLEEVTHLMRKGRTANVPIVGQNGQLLYLVTLSDVVKLRKNKQASLDSRGRLLVGAAVGVKKDDMNRAIRLVEAGADVLVVDIAHGHSDLCINMVKRLKGDPRTASVDIIAGNIASAEAAEALIDAGADGLKIGVGPGSICITRLVAGAGVPQLSAVLACTRVARRRGVPCIADGGLRTSGDISKAIGAGADTVMLGNMLAGTDEAPGRVLVKDGQKVKIIRGMAGFGANLSKAERERTQDEDVFSSLVPEGVEGSVACKGPVGPIVRQLVGGLRSGMSYSGAKSIEEMQRRTRFVRMTGAGLRESGSHGVAKL
notes: recombinant TbGMPR coding region, GST fusion in E. coli, tag cleaved with PreScission protease
As to B2, the Km was 12.3 ± 0.8 µM in “purified protein [7]” and 89.3 ± 9.0 µM in the data set “purified protein [8]”.
